In patent US9051553B2, “Poly(ADP-ribose) polymerase genes” (AbbVie Deutschland GmbH & Co. KG, priority 1998, dated 2015):

Target: T1, PARP3 (Homo sapiens, UniProt Q9Y6F1)
T1 construct: made in house; host or cells: insect cells (Sf9 or High-Five), baculovirus, pFASTBAC-1
T1 sequence (Q9Y6F1 1-533): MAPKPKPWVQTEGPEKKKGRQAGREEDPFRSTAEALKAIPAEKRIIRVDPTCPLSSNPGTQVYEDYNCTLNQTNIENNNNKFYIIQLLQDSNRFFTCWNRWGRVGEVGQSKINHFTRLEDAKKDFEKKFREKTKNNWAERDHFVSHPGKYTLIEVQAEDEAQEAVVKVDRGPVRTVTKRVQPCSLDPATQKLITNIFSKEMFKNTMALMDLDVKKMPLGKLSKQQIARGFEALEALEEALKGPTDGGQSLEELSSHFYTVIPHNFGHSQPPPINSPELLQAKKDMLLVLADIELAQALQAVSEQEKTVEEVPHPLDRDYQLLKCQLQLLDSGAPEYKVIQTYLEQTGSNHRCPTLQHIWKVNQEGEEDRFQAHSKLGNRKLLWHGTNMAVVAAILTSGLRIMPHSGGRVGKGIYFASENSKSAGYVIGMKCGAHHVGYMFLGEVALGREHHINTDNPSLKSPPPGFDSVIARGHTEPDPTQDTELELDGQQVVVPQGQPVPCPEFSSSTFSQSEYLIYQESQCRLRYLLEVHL
Test: PARP inhibition assay, selectivity PARP2 versus PARP3
Format: biochemical
Settings: PARP2 compared with PARP3 as printed
Experimental: Assay Systems for Determining the Activity of PARP2 and PARP3 and the Inhibitory Action of Effectors on PARP1, PARP2 and PARP3
Various concentrations were used to construct a dose-effect plot to determine the Ki value of an inhibitor. Values are obtained in triplicate for a particular inhibitor concentration. Arithmetic means are determined using Microsoft© Excel. The IC50 is determined using the Microcal© Origin Software (Vers. 5.0) (“Sigmoidal Fit”). Conversion of the IC50 value is calculated in this way into Ki values took place by using “calibration inhibitors”.
The “calibration inhibitors” were also measured in each analysis. The Ki values of the “calibration inhibitors” were determined in the same assay system by analysis of the Dixon diagram in the manner familiar to the skilled worker.
Measurement was then possible after 30 minutes (up to 4 hours). The measurement took place in a “discovery HTRF microplate analyzer” (Canberra Packard Instruments). The Ki values were calculated as described for the ELISA.

- selectivity for PARP2 over PARP3: eight times
Compound: O=c1[nH]nc(CNc2ccc(O)cc2)c2ccccc12 [4-(N-(4-hydroxyphe-nyl)aminomethyl)-(2H)-dihydrophthalazine-1-one]
